Data as given in ChEMBL document CHEMBL1145137, “Design, synthesis, and crystal structure of selective 2-pyridone tissue factor VIIa inhibitors” (J Med Chem, 2003).

Key:
[1] = biological target: Coagulation factor X (Homo sapiens, UniProt P00742); assay: Inhibitory concentration against human Coagulation factor X
[2] = biological target: T1, Coagulation factor VII (Homo sapiens, UniProt P08709); assay: Inhibitory concentration against recombinant human coagulation factor VII
T1 sequence (P08709 whole entry): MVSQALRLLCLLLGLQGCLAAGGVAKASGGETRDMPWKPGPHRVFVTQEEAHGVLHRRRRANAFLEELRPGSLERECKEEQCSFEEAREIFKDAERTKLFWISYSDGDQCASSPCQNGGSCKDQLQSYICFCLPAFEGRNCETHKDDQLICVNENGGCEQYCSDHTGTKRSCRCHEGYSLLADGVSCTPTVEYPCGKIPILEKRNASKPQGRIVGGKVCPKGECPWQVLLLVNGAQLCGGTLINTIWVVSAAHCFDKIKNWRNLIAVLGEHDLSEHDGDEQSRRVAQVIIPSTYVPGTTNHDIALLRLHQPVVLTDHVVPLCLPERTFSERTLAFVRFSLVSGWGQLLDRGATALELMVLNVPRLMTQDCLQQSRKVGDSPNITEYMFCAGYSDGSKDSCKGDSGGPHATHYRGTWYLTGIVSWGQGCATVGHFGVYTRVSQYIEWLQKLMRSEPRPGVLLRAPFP

[3] = biological target: Prothrombin (Homo sapiens, UniProt P00734); assay: Inhibitory concentration against human thrombin

Chain of Coagulation factor X (P00742 41-179 limits assumed): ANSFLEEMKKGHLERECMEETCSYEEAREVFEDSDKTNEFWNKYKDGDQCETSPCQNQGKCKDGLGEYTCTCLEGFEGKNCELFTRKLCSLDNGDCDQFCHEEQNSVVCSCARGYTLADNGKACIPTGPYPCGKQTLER
Chain of Coagulation factor X (P00742 235-488 limits assumed): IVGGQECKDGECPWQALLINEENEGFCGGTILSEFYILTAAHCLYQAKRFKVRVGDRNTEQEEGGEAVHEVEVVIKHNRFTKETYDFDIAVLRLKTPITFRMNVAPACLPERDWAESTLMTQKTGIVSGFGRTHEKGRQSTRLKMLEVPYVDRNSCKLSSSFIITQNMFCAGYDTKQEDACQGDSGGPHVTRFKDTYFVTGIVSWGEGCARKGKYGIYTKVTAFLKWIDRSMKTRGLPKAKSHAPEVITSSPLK

IC50 [1] [µM]	IC50 [2] [nM]	IC50 [3] [µM]	Compound
> 30	118	> 30	CC(C)Nc1ccc(-c2cc(N)cc(C(=O)O)c2)n(CC(=O)NCc2ccc(C(=N)N)cc2)c1=O
	52		CC(C)Nc1ccc(-c2cc(N)cc(N)c2)n(CC(=O)NCc2ccc(C(=N)N)cc2)c1=O
